Measurements published in patent publication US9700565B2, “Method of treating mixed lineage leukemia gene-rearranged acute lymphoblastic leukemias” (Dana-Farber Cancer Institute, Inc., priority 2003, dated 2017).

Tests used:
[1] = test system: SEMK2-M1; assay: In vivo xenograft model of MLL rearranged ALL with bioluminescent imaging, SEMK2-M1 cells; set-up: species or system SCID-beige mice; details: 150 mg/kg once daily via gavage, 5 days per week
Protocol: (§1) To determine if PKC412 is effective against an in vivo model of MLL rearranged ALL, a xenograft model system in which leukemia burden can be quantitated with in vivo bioluminescent imaging is established. SEMK2-M1 and RS4; 11 (ATCC Number: CRL-1873) cell lines are engineered to express firefly luciferase fused to neomycin phosphotransferase by retroviral transduction. One million leukemia cells are then injected into the tail vein of SCID-beige mice. Within 1 week, the bioluminescent signal is detectable in a location consistent with the femur. Pathologic analysis of similarly xenografted mice confirm that the leukemia cells are initially found in the mouse bone marrow present in the femoral head. The leukemia subsequently progresses to replace the normal bone marrow and involve other organs, thus mimicking the progression of human leukemia. Once the leukemia had engrafted, as can be determined by the presence of a bioluminescent signal, a cohort of mice is treated with either 150 mg/kg PKC412 or vehicle once daily via gavage for 5 days per week. Serial imaging of the two cohorts is then performed to quantitate disease burden. […] Thus, oral administration of PKC412 is effective in vivo against human lymphoblastic leukemia with an MLL rearranged ALL arrangement and activated FLT3.

[2] = test system: RS4; 11; assay: In vivo xenograft model of MLL rearranged ALL with bioluminescent imaging, RS4; 11 cells; details: SCID-beige mice injected with RS4; 11 cells (does not over-express FLT3); 150 mg/kg once daily via gavage, 5 days per week
Protocol: as §1

CO[C@@H]1[C@H](N(C)C(=O)c2ccccc2)C[C@H]2O[C@]1(C)n1c3ccccc3c3c4c(c5c6ccccc6n2c5c31)C(=O)NC4 [PKC412, N-benzoyl-staurosporine]
quantification of total leukemic burden (bioluminescent imaging) ([1]; SCID-beige mice engrafted with SEMK2-M1 cells (over-expresses FLT3), after 2 weeks of therapy): anti-tumor efficacy | tumor burden by pathological analysis at completion of the study ([1]; SEMK2-M1 injected mice, compared to control mice): vast differences in tumor burden | anti-tumor effect on leukemia (bioluminescent imaging) [2]: no effect
